Some test systems named below: A498 renal; ACHN renal; BT-549 breast; CCRF-CEM leukemia; DU-145 prostate; EKVX NSCLC; HS 578T breast; M14 melanoma; MDA-MB-231 breast; MDA-MB-435; MDA-N; NCI-H226 lung; OVCAR-5 ovarian; RPMI-8226 leukemia; SF-539 CNS; SK-MEL-2 melanoma; SK-MEL-5 melanoma; SNB-19 CNS; U251 CNS; UACC-257 melanoma.
Experiment in all cases: inhibition of tumour cell growth, NCI panel, 48 h

Each structure is given as a SMILES string.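 Cells were grown in 96-well plates and exposed to each compound for 48 hours at five concentrations; endpoints were interpolated linearly between bracketing concentrations, or set to the highest concentration if not reached. The concentration for full growth arrest is given as TGI.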 Some results are limits rather than exact numbers.

In PubChem BioAssay (NCI) one finds TGI data, which are given here for six compounds.

Consider `OC[P+](CO)(CO)C12CC3CC(CC(C3)C1)C2`, for which the TGI is over 100 µM with A498 renal; over 100 µM in the assay with ACHN renal; over 100 µM in the assay on BT-549 breast; 62.2 µM in the assay with CCRF-CEM leukemia; over 100 µM with DU-145 prostate; over 100 µM with EKVX NSCLC. In addition, the TGI in the assay with HS 578T breast, in the assay with M14 melanoma, in the assay on MDA-MB-231 breast, with MDA-MB-435, with MDA-N and in the assay on NCI-H226 lung was over 100 µM in each case. In addition, the TGI is over 100 µM in the assay on OVCAR-5 ovarian; 59.2 µM in the assay on RPMI-8226 leukemia; over 100 µM in the assay with SF-539 CNS; over 100 µM in the assay with SK-MEL-2 melanoma; over 100 µM with SK-MEL-5 melanoma; over 100 µM with SNB-19 CNS. For the same compound, the TGI in the assay with U251 CNS and in the assay with UACC-257 melanoma was over 100 µM in each case.
For the compound `N#Cc1ccc(CSC2=C(c3ccc(Cl)cc3)S/C(=C3\SC(SCc4ccc(C#N)cc4)=C(c4ccc(Cl)cc4)S3)S2)cc1`, the TGI with A498 renal, with ACHN renal, in the assay on BT-549 breast, in the assay on CCRF-CEM leukemia, in the assay with DU-145 prostate and in the assay with EKVX NSCLC was over 100 µM throughout. The TGI with HS 578T breast, in the assay with M14 melanoma, in the assay with MDA-MB-231 breast, in the assay with MDA-MB-435, in the assay on MDA-N and in the assay with NCI-H226 lung was over 100 µM throughout. In addition, the TGI in the assay on OVCAR-5 ovarian, in the assay with RPMI-8226 leukemia, with SF-539 CNS, in the assay with SK-MEL-2 melanoma, in the assay on SK-MEL-5 melanoma and in the assay on SNB-19 CNS was over 100 µM throughout. In addition, the TGI with U251 CNS and in the assay on UACC-257 melanoma was over 100 µM throughout.
For the compound `CN(C)CCCSc1nc2c(c(=N)n1-c1ccccc1)c(=S)n(-c1ccccc1)c(=S)n2-c1ccccc1`, the TGI in the assay with A498 renal came out at 4.89 µM; in the assay with ACHN renal, 3.22 µM; in the assay on BT-549 breast, 3.38 µM; in the assay on CCRF-CEM leukemia, 2.41 µM; with DU-145 prostate, 3.04 µM; in the assay on EKVX NSCLC, 3.58 µM. In addition, the TGI with HS 578T breast is over 100 µM; in the assay on M14 melanoma, 3.76 µM; in the assay on MDA-MB-231 breast, 3.03 µM; in the assay with MDA-MB-435 it was 3.09 µM; in the assay on MDA-N, 3.18 µM; in the assay on NCI-H226 lung, 28.4 µM. Besides, the TGI in the assay with OVCAR-5 ovarian is 24.5 µM; in the assay with RPMI-8226 leukemia it was 1.84 µM; in the assay with SF-539 CNS it was 6.95 µM; in the assay on SK-MEL-2 melanoma, 4.11 µM; with SK-MEL-5 melanoma, 3.79 µM; in the assay with SNB-19 CNS, 8.14 µM. Moreover, the results for the TGI in the assay on U251 CNS and with UACC-257 melanoma were 3.19 µM and 3.32 µM, respectively.
As for `Cn1c(=O)c2c(nc3sc4c(n32)C(=O)c2c(O)ccc(O)c2C4=O)n(C)c1=O`, the TGI with A498 renal is 57.4 µM; in the assay on ACHN renal, 8.33 µM; in the assay with BT-549 breast, 17.7 µM; in the assay with CCRF-CEM leukemia, 1.9 µM; with DU-145 prostate it was 26.7 µM; in the assay on EKVX NSCLC, 33.8 µM. Moreover, the TGI with HS 578T breast was 64.1 µM; with M14 melanoma, 6.48 µM; with MDA-MB-231 breast it was 5.26 µM; in the assay on MDA-MB-435, 15.5 µM; in the assay on MDA-N it was 4.1 µM; with NCI-H226 lung it was over 100 µM. Further, the TGI was 48.6 µM in the assay on OVCAR-5 ovarian; 2.04 µM in the assay on RPMI-8226 leukemia; 15.6 µM with SF-539 CNS; 17.5 µM in the assay on SK-MEL-2 melanoma; 8.35 µM with SK-MEL-5 melanoma; over 91.5 µM in the assay on SNB-19 CNS. Also, the TGI with U251 CNS was over 48.7 µM; in the assay with UACC-257 melanoma, 28.5 µM.
Regarding `COC(=O)c1ccccc1NC(=NC1CCCCCC1)NS(=O)(=O)c1ccc(C)cc1`, the TGI with A498 renal, in the assay on ACHN renal, in the assay with BT-549 breast, with CCRF-CEM leukemia, with DU-145 prostate and with EKVX NSCLC was over 100 µM each time. The TGI in the assay on HS 578T breast, in the assay with M14 melanoma, in the assay with MDA-MB-231 breast, with MDA-MB-435, in the assay on MDA-N and with NCI-H226 lung was over 100 µM each time. Moreover, the TGI with OVCAR-5 ovarian, in the assay with RPMI-8226 leukemia, with SF-539 CNS, in the assay on SK-MEL-2 melanoma, in the assay with SK-MEL-5 melanoma and with SNB-19 CNS was over 100 µM in each case. Moreover, the TGI in the assay with U251 CNS and with UACC-257 melanoma was over 100 µM each time.
Turning to `CCOC(=O)CCSc1nc2ccc(I)cc2c(=O)n1Cc1ccccc1`, the TGI in the assay on A498 renal is over 79.2 µM; in the assay with ACHN renal, over 83 µM; in the assay with BT-549 breast, over 94.4 µM; in the assay on CCRF-CEM leukemia, 67.4 µM; in the assay with DU-145 prostate it was over 100 µM; in the assay with EKVX NSCLC, 82.4 µM. For the same compound, the TGI in the assay with HS 578T breast was over 81.9 µM; in the assay with M14 melanoma, over 100 µM; with MDA-MB-231 breast, over 100 µM; in the assay with MDA-MB-435, over 89 µM; in the assay on MDA-N, over 86.7 µM; with NCI-H226 lung, over 100 µM. The TGI in the assay on OVCAR-5 ovarian was over 100 µM; with RPMI-8226 leukemia it was 33.5 µM; with SF-539 CNS, over 100 µM; with SK-MEL-2 melanoma it was over 100 µM; in the assay with SK-MEL-5 melanoma it was 32 µM; with SNB-19 CNS, over 100 µM. Moreover, the values for the TGI with U251 CNS and in the assay with UACC-257 melanoma were over 100 µM and over 92.2 µM, respectively.
